Experimental findings from PubChem BioAssay (NCI) are described below.

What all share (test): NCI tumour cell line growth inhibition, 48 h
Assay [1] concerns 786-0 renal.
Assay [2] deals with HCT-15 colon.
Assay [3] relates to K-562 leukemia.
The test system of assay [4] is LOX IMVI melanoma.
For assay [5], the system named is SF-295 CNS.
Assay [6] concerns SF-539 CNS.
Assay [7] relates to SNB-75 CNS.
For assay [8], the system named is U251 CNS.
Assay [9] deals with UACC-257 melanoma.

SMILES strings stand for the structures.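 In this assay, cells in 96-well plates receive the compound at five concentrations for 48 hours. Endpoints are linearly interpolated between the surrounding concentrations. Abbreviation: GI50, concentration required for 50% inhibition of growth. TGI denotes the concentration required for complete inhibition of growth.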

Consider `CC12OC3CC(O1)C1(C=O)C4CCC5(C)C(c6ccc(=O)oc6)CCC5(O)C4CCC1(C3)O2` (centres undefined), for which the TGI is 246 nM in assay [1]; 648 nM in assay [2]; greater than 100000 nM in assay [3]; 524 nM in assay [4]; 1020 nM in assay [5]; 228 nM in assay [6]. Besides, the TGI in assay [7] was 1030 nM; in assay [8], 1240 nM; in [9], 774 nM.
For `O=C(NO)c1cnc(N2CCN(S(=O)(=O)c3ccc4ccccc4c3)CC2)nc1`, the GI50 is 193 nM in assay [1]; 69 nM in [2]; 36.3 nM in assay [3]; 53.2 nM in assay [5]; 76.2 nM in assay [6]; 26.5 nM in assay [7]. Moreover, the GI50 is 65.4 nM in [8] and 24.9 nM in [9]. Further, the TGI in assay [1] is 2830 nM; in assay [2], 15600 nM; in assay [3], greater than 40900 nM; in assay [5], 268 nM; in assay [6] it was 2800 nM; in assay [7], 10800 nM. Besides, the TGI was determined as 298 nM in [8] and 188 nM in [9].
Take `CCCCCc1c(C)[nH]c(/C=c2\[nH]/c(=C3/C=c4ccccc4=N3)cc2OC)c1C`: the GI50 in assay [1] was 49 nM; in assay [2], 33.7 nM; in assay [4] it was 24.8 nM; in assay [5], 90.2 nM; in assay [6], 60.4 nM; in [7] it was 107 nM. The values for the GI50 in [8] and in assay [9] were 67 nM and 394 nM, respectively. Moreover, the TGI in assay [1] was 242 nM; in assay [2], 1310 nM; in assay [4] it was 67.6 nM; in assay [5], 452 nM; in assay [6], 659 nM; in assay [7] it was 583 nM. Also, the TGI is 627 nM in [8] and 1730 nM in [9].
As to `C[C@]12CCCC(=O)C1C[C@H](C(=O)O)CC2` (some centres undefined), the TGI in [1], in assay [2], in assay [3], in assay [4], in assay [5] and in assay [6] was greater than 100000 nM in each case. The TGI in assay [7], in assay [8] and in assay [9] was greater than 100000 nM each time.
On to `C[C@@H](Oc1cc(-c2cnn(C3CC4(CCCNC4)C3)c2)cnc1N)c1c(Cl)ccc(F)c1Cl` (some centres undefined), for which the GI50 is 1640 nM in [1]; 1300 nM in assay [2]; 265 nM in assay [3]; 1170 nM in assay [4]; 247 nM in assay [5]; 1590 nM in [6]. Also, the GI50 in assay [7] was 1640 nM; in assay [8] it was 1410 nM; in assay [9] it was 1450 nM. The TGI was 3190 nM in [1]; 3160 nM in assay [2]; 1410 nM in [3]; 2500 nM in assay [4]; 2130 nM in [5]; 3020 nM in assay [6]. Besides, the results for the TGI in [7], in [8] and in assay [9] were 3960 nM, 3430 nM and 2880 nM, respectively.
For the compound `N#Cc1c(Oc2ccc(F)c(NC(=O)Cc3cccc(C(F)(F)F)c3)c2)ccc2nc(NC(=O)C3CC3)sc12`, the GI50 is 1330 nM in assay [1]; 261 nM in [2]; 385 nM in assay [3]; 579 nM in [5]; 436 nM in [6]; 1100 nM in [7]. Moreover, the GI50 in assay [8] was 491 nM; in assay [9], 25.3 nM. For the same compound, the TGI in assay [1] was greater than 100000 nM; in assay [2], greater than 100000 nM; in [3], greater than 100000 nM; in assay [5] it was greater than 100000 nM; in assay [6], greater than 27200 nM; in assay [7], greater than 100000 nM. The figures for the TGI in [8] and in assay [9] were greater than 100000 nM and 203 nM, respectively.
Turning to `CC(C)N(C[C@H]1O[C@@H](n2cnc3c(N)ncnc32)[C@H](O)[C@@H]1O)C1CC(CCc2nc3ccc(C(C)(C)C)cc3[nH]2)C1` (some centres undefined), the GI50 was greater than 100000 nM in [1]; greater than 100000 nM in [2]; 33400 nM in [3]; greater than 71500 nM in assay [4]; greater than 70800 nM in assay [5]; greater than 100000 nM in assay [6]. Moreover, the values for the GI50 in assay [7], in assay [8] and in assay [9] were 24900 nM, greater than 100000 nM and greater than 58700 nM, respectively. In addition, the TGI was greater than 100000 nM in [1]; greater than 100000 nM in assay [2]; greater than 75300 nM in assay [3]; greater than 100000 nM in [4]; greater than 100000 nM in assay [5]; greater than 100000 nM in assay [6]. The TGI in [7], in assay [8] and in assay [9] was greater than 100000 nM throughout.
In the case of `CC1(C)CC2CC(C)(CN2c2ncnc3ccc(Br)cc23)C1` (centres undefined), the GI50 is 12800 nM in [1]; 15500 nM in assay [2]; 1620 nM in [3]; 13700 nM in assay [4]; 3340 nM in [5]; 13300 nM in [8]. Also, the TGI amounted to 25400 nM in assay [1]; 28900 nM in assay [2]; 6790 nM in assay [3]; 26500 nM in assay [4]; 16300 nM in assay [5]; 26100 nM in assay [8].
